Measured values from patent US10912781B2, “Pharmaceutical composition comprising licarbazepine acetate” (BIAL-Portela & C.A., S.A., priority 2007, dated 2021).

Experiment: Bulk density / apparent volume (Ph. Eur. edn. 6, test 2.9.15 or USP 31 <616>)
Type: physicochemical
Conditions: API prior to granulation / preparation prior to forming the final formulation
Experimental: Suitable methods for determining the bulk density of the preparation will be well known to the skilled chemist, for example, the European Pharmacopeia edition 6, Test 2.9.15 “apparent volume”, pages 285-286, EDQM, 2007, or USP 31, vol. 1 test <616> page 231-232, The United States Pharmacopeia Convention, 2008. The apparent density of a compressed formulation is measured in terms of mass and volume of the formulation and is well within the capabilities of the skilled person.
A suitable method is described below: • Apparatus • settling apparatus capable of producing in 1 minute 250±15 taps from a height of 3±0.2 mm. The support for the graduated cylinder with its holder, has a mass of 450±5 g • a 250 ml graduated cylinder (2 ml intervals) with a mass of 220±40 g • Method • Into a dry cylinder, introduce without compacting, 100.0 g […] of the test substance. Secure the cylinder in its holder. Read the unsettled apparent volume (V0) to the nearest milliliter. Carry out 10, 500 and 1250 taps and read the corresponding volumes V10, V500, V1250, to the nearest milliliter. If the difference between V500 and V1250 is greater than 2 ml, carry out another 1250 taps. […]
Bulk/apparent density may then be determined in g/ml using the following formula: m/V0 where m is the mass in grams and V0 the unsettled apparent volume

Bulk density: less than 0.3 g/mL
Bulk density (listed as API): about 0.28 g/mL
Substance: licarbazepine acetate
